# Measured values from patent publication US4874698A, “Process for producing tryptophan” (Kyowa Hakko Kogyo Co., Ltd., priority 1983, dated 1989).
# What was measured:
# [1] = molecular target: anthranilic acid synthetase encoded by pTrp 13-2 (Corynebacterium glutamicum, UniProt P06557); experiment: Inhibition by tryptophan of the anthranilic acid synthetase encoded by plasmid pTrp 13-2; format: biochemical
# Description: (§1) The thus obtained transformants have the plasmid harboring a gene coding for the anthranilic acid synthetase insensitie to tryptophan. The anthranilic acid synthetase encoded by one of the plasmids, pTrp 13-2 was inhibited 50% with 0.25 mM tryptophan, which was 40-fold higher than the concentration of tryptophan (0.006 mM) needed to inhibit 50% the anthranilic acid synthetase encoded by pTrp 9-1.
# [2] = molecular target: T1, anthranilic acid synthetase encoded by pTrp 9-1 (Corynebacterium glutamicum, UniProt P06557); experiment: Inhibition by tryptophan of the anthranilic acid synthetase encoded by plasmid pTrp 9-1; format: biochemical, Corynebacterium glutamicum ATCC 13032
# T1 construct: made in house; host or cells: Corynebacterium glutamicum LA 105
# Description: as §1
# anthranilic acid synthetase encoded by pTrp 13-2, sequence (P06557 whole entry): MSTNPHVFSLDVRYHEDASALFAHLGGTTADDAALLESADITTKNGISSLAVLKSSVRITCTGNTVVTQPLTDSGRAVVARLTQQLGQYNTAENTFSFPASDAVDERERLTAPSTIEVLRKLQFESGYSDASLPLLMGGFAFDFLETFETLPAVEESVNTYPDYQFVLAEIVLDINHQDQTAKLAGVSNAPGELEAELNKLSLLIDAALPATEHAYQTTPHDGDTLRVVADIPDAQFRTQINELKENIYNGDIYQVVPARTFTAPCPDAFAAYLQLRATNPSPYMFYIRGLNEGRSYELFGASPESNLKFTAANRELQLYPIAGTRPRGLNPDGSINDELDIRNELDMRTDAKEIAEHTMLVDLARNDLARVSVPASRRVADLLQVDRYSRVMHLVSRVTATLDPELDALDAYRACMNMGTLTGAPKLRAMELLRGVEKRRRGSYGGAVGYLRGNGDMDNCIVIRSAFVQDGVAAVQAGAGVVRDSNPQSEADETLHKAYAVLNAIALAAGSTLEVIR
# anthranilic acid synthetase encoded by pTrp 13-2, sequence (P06558 whole entry, further chain): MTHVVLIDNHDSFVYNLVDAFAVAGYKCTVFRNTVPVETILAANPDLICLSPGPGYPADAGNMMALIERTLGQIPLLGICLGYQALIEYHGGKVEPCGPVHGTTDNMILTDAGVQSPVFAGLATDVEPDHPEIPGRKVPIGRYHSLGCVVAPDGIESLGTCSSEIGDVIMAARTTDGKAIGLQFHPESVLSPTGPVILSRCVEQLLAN
# T1 sequence (P06557 whole entry): as the sequence (P06557 whole entry) above
# T1 sequence (P06558 whole entry, further chain): as the sequence (P06558 whole entry, further chain) above
smiles,measurement,setting,value
N[C@@H](Cc1c[nH]c2ccccc12)C(=O)O [tryptophan],"fold higher 50% inhibitory tryptophan concentration, pTrp 13-2 enzyme versus pTrp 9-1 enzyme",[1]; 0.25 mM versus 0.006 mM,40 fold
same,IC50,"[1]; read-out: concentration of tryptophan inhibiting the anthranilic acid synthetase 50%, enzyme encoded by tryptophan-analog resistant plasmid pTrp 13-2",250 µM
same,IC50,[2],6 µM
